Several values for one entry are separate records, joined by “and”; a condition that tells them apart may be missing. Equal entries are not always repeated.
Legend:
[1] = target: T1, ADORA3 receptor (CHO cells stably expressing ADORA3 receptor) (Homo sapiens, UniProt P0DMS8); assay: Effect of compound on intracellular cAMP level by adenosine A3 receptor agonism; format: cell-based; details: forskolin-stimulated
T1 construct: expressed in transfected cells
T1 sequence (P0DMS8 1-318): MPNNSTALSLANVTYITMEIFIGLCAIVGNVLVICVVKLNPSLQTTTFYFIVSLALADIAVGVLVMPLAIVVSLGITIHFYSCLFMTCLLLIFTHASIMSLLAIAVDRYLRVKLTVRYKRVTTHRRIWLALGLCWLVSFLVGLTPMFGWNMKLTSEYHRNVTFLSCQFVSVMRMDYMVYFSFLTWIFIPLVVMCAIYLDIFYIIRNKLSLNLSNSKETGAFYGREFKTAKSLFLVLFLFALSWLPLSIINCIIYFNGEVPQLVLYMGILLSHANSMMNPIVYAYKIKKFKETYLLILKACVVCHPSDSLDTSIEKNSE
Protocol: Example 26: Test the Effect of Compound on Intracellular cAMP Level by Adenosine A3 Receptor Agonism
• 1) 1×HBSS with Ca2+ and Mg2+ (14 mL), 1 M HEPES (75 μL), a 7.5% (w/v) BSA stabilizer (pH 7.4, 200 μL), and 20 mM rolipram (7.5 μL) were respectively prepared as cAMP assay buffer. • 2) Preparation of compound source plate • a. […] A 10 mM stock solution was subjected to a 3-fold serial dilution by 100% (v/v) DMSO to prepare 10 doses of the test substance. • c. 1 mM of Forskolin was prepared by 100% (v/v) DMSO. • 3) Preparation of test plate • a. Prior to the assay, CHO cells stably expressing ADORA3 receptor were harvested and the cells were counted by using a Countess cell counter. […] The cells were seeded at a density of 2,000 cells/well in a 384-well plate. • 4) 10 nL/well of the serially diluted compound and 10 nL/well of 1 mM of forskolin were transferred to each well with ADORA3 receptor expressing cells by using Echo550. • 5) A cell plate was centrifuged at 1,000 rpm for 1 minute and then stirred at 600 rpm for 2 minutes. The plate was incubated at 37° C. • 6) An Eu-cAMP tracer working solution and an Ulight-anti-cAMP working solution were prepared according to the following table.
• 7) 5 μl/well of the Eu-cAMP tracer working solution and 5 μl/well of the Ulight-anti-cAMP working solution were added to each well of the plate. […] 2. Data Analysis • 1) An activation percentage was calculated by using the following formula:
[formula] • % Activation: activation percentage • Ratiocpd: ratio of emissivity of test compound • RatioLow control: ratio of low emissivity • RatioHigh control: ratio of high emissivity • 2) EC50 was calculated by an XLfit using the Hill equation to fit the activity percentage and a log of a compound concentration. 3. Test Result

[2] = Pharmacokinetic test of compound in SD rat; format: in vivo; details: SD rats, intragastric administration (IG), cassette dosing
Protocol: Example 28: Pharmacokinetic Test of Compound in SD Rat
The animal species used in this experiment were SD rats. There were 3 animals per group. The rats were dosed in cassette format, i.e., multiple (1-6) different compounds were dosed simultaneously to the same group of the SD rats. The vehicle used for the drug was 5% DMSO+5% Solutl+90% ([…] methylcellulose M450), and the administration route was intragastric administration (IG).

SMILES	EC50 [1] [nM]	AUC_D [2]
CCOc1cncc(-c2nc(NCc3cccc(C)c3)c3ncn(C4O[C@H](C(=O)NC)[C@@H](O)[C@H]4O)c3n2)c1 (stereo in doubt) [compound 301, (2S,3S,4R,5S)-5-(2-(5-ethoxypyridin-3-yl)-6-((3-methylbenzyl)amino)-9H-purin-9-yl)-3,4-dihydroxyl-N-methyltetrahydrofuran-2-carboxamide]	3.78	744.06 kg·ng·h/mL/mg
CNC(=O)[C@H]1OC(n2cnc3c(NCc4ccccn4)nc(-c4cncc(OC)c4)nc32)[C@H](O)[C@@H]1O (stereo in doubt) [compound 307, (2S,3S,4R,5S)-3,4-dihydroxyl-5-(2-(5-methoxypyridin-3-yl)-6-((pyridin-2-ylmethyl)amino)-9H-purin-9-yl)-N-methyltetrahydrofuran-2-carboxamide]	9.4	173.85 kg·ng·h/mL/mg
CNC(=O)[C@H]1O[C@@H](n2cnc3c(NC)nc(-c4cncc(Cl)c4)nc32)[C@H](O)[C@@H]1O [compound 70, (2S,3S,4R,5R)-5-(2-(5-chloropyridin-3-yl)-6-(methylamino)-9H-purin-9-yl)-3,4-dihydroxyl-N-methyltetrahydrofuran-2-carboxamide]	1.23	–
[2H]C([2H])([2H])NC(=O)[C@H]1O[C@@H](n2cnc3c(NC([2H])([2H])[2H])nc(-c4ccsc4)nc32)[C@H](O)[C@@H]1O [compound 92, (2S,3S,4R,5R)-3,4-dihydroxyl-N-(methyl-d3)-5-(6-(methyl-d3-amino)-2-(thiophen-3-yl)-9H-purin-9-yl)tetrahydrofuran-2-carboxamide]	< 0.51	83.00 kg·ng·h/mL/mg
CNC(=O)[C@H]1O[C@@H](n2cnc3c(NCc4cccc(C)n4)nc(-c4cccnc4)nc32)[C@H](O)[C@@H]1O [compound 107]	5.22	–
CNC(=O)[C@H]1O[C@@H](n2cnc3c(NCc4cccc(C)c4)nc(-c4cccnc4)nc32)[C@H](O)[C@@H]1O [compound 108, (2S,3S,4R,5R)-3,4-dihydroxyl-N-methyl-5-(6-((3-methylbenzyl)amino)-2-(pyridin-3-yl)-9H-purin-9-yl)tetrahydrofuran-2-carboxamide]	1.58	801.47 kg·ng·h/mL/mg
CNC(=O)[C@H]1O[C@@H](n2cnc3c(NCc4cccc(C)c4)nc(-c4cncc(Cl)c4)nc32)[C@H](O)[C@@H]1O [compound 160, (2S,3S,4R,5R)-5-(2-(5-chloropyridin-3-yl)-6-((3-methylbenzyl)amino)-9H-purin-9-yl)-3,4-dihydroxyl-N-methyltetrahydrofuran-2-carboxamide]	3.53	1900.75 kg·ng·h/mL/mg and 1515.94 kg·ng·h/mL/mg
CNC(=O)[C@H]1O[C@@H](n2cnc3c(NCc4cccc(C)c4)nc(-c4cncc(F)c4)nc32)[C@H](O)[C@@H]1O [compound 161, (2S,3S,4R,5R)-5-(2-(5-fluoropyridin-3-yl)-6-((3-methylbenzyl)amino)-9H-purin-9-yl)-3,4-dihydroxyl-N-methyltetrahydrofuran-2-carboxamide]	0.74	994.72 kg·ng·h/mL/mg
[2H]C([2H])([2H])NC(=O)[C@H]1O[C@@H](n2cnc3c(NCc4cc(C)cc(Cl)c4)nc(-c4cncc(Cl)c4)nc32)[C@H](O)[C@@H]1O [compound 222, (2S,3S,4R,5R)-5-(6-((3-chloro-5-methylbenzyl)amino)-2-(5-chloropyridin-3-yl)-9H-purin-9-yl)-3,4-dihydroxyl-N-(methyl-d3)-tetrahydrofuran-2-carboxamide]	0.89	–
[2H]C([2H])([2H])NC(=O)[C@H]1O[C@@H](n2cnc3c(NCc4cccc(CC)c4)nc(-c4cncc(Cl)c4)nc32)[C@H](O)[C@@H]1O [compound 223, (2S,3S,4R,5R)-5-(2-(5-chloropyridin-3-yl)-6-((3-ethylbenzyl)amino)-9H-purin-9-yl)-3,4-dihydroxyl-N-(methyl-d3)-tetrahydrofuran-2-carboxamide]	15.2	–
[2H]C([2H])([2H])NC(=O)[C@H]1O[C@@H](n2cnc3c(NCc4cc(C)cc(C)c4)nc(-c4cncc(Cl)c4)nc32)[C@H](O)[C@@H]1O [compound 224, (2S,3S,4R,5R)-5-(2-(5-chloropyridin-3-yl)-6-((3,5-dimethylbenzyl)amino)-9H-purin-9-yl)-3,4-dihydroxyl-N-(methyl-d3)-tetrahydrofuran-2-carboxamide]	1.34	–
[2H]C([2H])([2H])NC(=O)[C@H]1O[C@@H](n2cnc3c(NCc4cc(F)ccc4Cl)nc(-c4cncc(Cl)c4)nc32)[C@H](O)[C@@H]1O [compound 246, (2S,3S,4R,5R)-5-(6-(2-chloro-5-fluorobenzylamino)-2-(5-chloropyridin-3-yl)-9H-purin-9-yl)-3,4-dihydroxyl-N-(methyl-d3)-tetrahydrofuran-2-carboxamide]	1.18	–
[2H]C([2H])([2H])NC(=O)[C@H]1O[C@@H](n2cnc3c(NCc4cccc(C)c4)nc(-c4cncc(CC)c4)nc32)[C@H](O)[C@@H]1O [compound 282, (2S,3S,4R,5R)-5-(2-(5-ethylpyridin-3-yl)-6-((3-methylbenzyl)amino)-9H-purin-9-yl)-3,4-dihydroxyl-N-(methyl-d3)tetrahydrofuran-2-formamide]	4	–

Continued, values first:

EC50 [1] [nM]	AUC_D [2]	SMILES
9.62	–	CNC(=O)[C@H]1OC(n2cnc3c(NCc4ccccc4)nc(-c4ccccn4)nc32)[C@H](O)[C@@H]1O (stereo in doubt) [compound 325, (2S,3S,4R,5S)-5-(6-(benzylamino)-2-(pyridin-2-yl)-9H-purin-9-yl)-3,4-dihydroxyl-N-methyltetrahydrofuran-2-carboxamide]
7.32	230.72 kg·ng·h/mL/mg	CNC(=O)[C@H]1O[C@@H](n2cnc3c(NCc4cccc(C)n4)nc(-c4cncc(OC)c4)nc32)[C@H](O)[C@@H]1O [compound 111, (2S,3S,4R,5R)-3,4-dihydroxyl-5-(2-(5-methoxypyridin-3-yl)-6-((((6-methylpyridin-2-yl))methyl)amino)-9H-purin-9-yl)-N-methyltetrahydrofuran-2-carboxamide]
5.77	86.00 kg·ng·h/mL/mg	[2H]C([2H])([2H])NC(=O)[C@H]1O[C@@H](n2cnc3c(NCc4ccccc4)nc(-c4ccsc4)nc32)[C@H](O)[C@@H]1O [compound 24, (2S,3S,4R,5R)-5-(6-(benzylamino)-2-(thiophen-3-yl)-9H-purin-9-yl)-3,4-dihydroxyl-N-(methyl-d3)-tetrahydrofuran-2-formamide]
4.16	–	CNC(=O)[C@H]1O[C@@H](n2cnc3c(NCc4cccc(Cl)n4)nc(-c4cccnc4)nc32)[C@H](O)[C@@H]1O [compound 247]
2.26	–	[2H]C([2H])([2H])NC(=O)[C@H]1O[C@@H](n2cnc3c(NCc4cccc(C)c4)nc(-c4cncc(OC)c4)nc32)[C@H](O)[C@@H]1O [compound 302]
1.41	–	CNC(=O)[C@H]1O[C@@H](n2cnc3c(NC)nc(-c4cccnc4)nc32)[C@H](O)[C@@H]1O [compound 102, (2S,3S,4R,5R)-3,4-dihydroxyl-N-methyl-5-(6-(methylamino)-2-(pyridin-3-yl)-9H-purin-9-yl)tetrahydrofuran-2-carboxamide]

— patent US12655174B2, “Adenosine A3 receptor agonists, preparation methods and uses thereof” (ZHEJIANG VIMGREEN PHARMACEUTICALS, LTD., priority 2020, dated 2026)
